Assays:
Heart [1] = experiment: Biodistribution in BALB/c mouse heart at 7 to 8 KBq, iv after 15 mins; format: ADME, organism-based; conditions: in vivo, 0.25 h
Mus musculus [2] = experiment: Biodistribution in BALB/c mouse upper body at 7 to 8 KBq, iv after 5 mins; format: ADME, organism-based; conditions: in vivo
Liver [3] = experiment: Biodistribution in BALB/c mouse liver at 7 to 8 KBq, iv after 15 mins; format: ADME, organism-based; conditions: in vivo, 0.25 h
Medulla [4] = experiment: Biodistribution in BALB/c mouse medulla at 7 to 8 KBq, iv after 15 mins; format: ADME, organism-based, Medulla of organ; conditions: in vivo, 0.25 h
Stomach [5] = experiment: Biodistribution in BALB/c mouse stomach at 7 to 8 KBq, iv after 120 mins; format: ADME, organism-based; conditions: in vivo, 2 h
Heart [6] = experiment: Biodistribution in BALB/c mouse heart at 7 to 8 KBq, iv after 5 mins; format: ADME, organism-based; conditions: in vivo
Intestine [7] = experiment: Biodistribution in BALB/c mouse intestine at 7 to 8 KBq, iv after 120 mins; format: ADME, organism-based; conditions: in vivo, 2 h
Kidney [8] = experiment: Biodistribution in BALB/c mouse kidney at 7 to 8 KBq, iv after 120 mins; format: ADME, organism-based; conditions: in vivo, 2 h
Blood [9] = experiment: Biodistribution in BALB/c mouse blood at 7 to 8 KBq, iv after 60 mins; format: ADME, organism-based; conditions: in vivo, 1 h
Kidney [10] = experiment: Biodistribution in BALB/c mouse kidney at 7 to 8 KBq, iv after 5 mins; format: ADME, organism-based; conditions: in vivo
Intestine [11] = experiment: Biodistribution in BALB/c mouse intestine at 7 to 8 KBq, iv after 5 mins; format: ADME, organism-based; conditions: in vivo
Cerebellum [12] = experiment: Biodistribution in BALB/c mouse cerebellum at 7 to 8 KBq, iv after 15 mins; format: ADME, organism-based; conditions: in vivo, 0.25 h
Medulla [13] = experiment: Biodistribution in BALB/c mouse medulla at 7 to 8 KBq, iv after 60 mins; format: ADME, organism-based, Medulla of organ; conditions: in vivo, 1 h
Kidney [14] = experiment: Biodistribution in BALB/c mouse kidney at 7 to 8 KBq, iv after 15 mins; format: ADME, organism-based; conditions: in vivo, 0.25 h
Stomach [15] = experiment: Biodistribution in BALB/c mouse stomach at 7 to 8 KBq, iv after 60 mins; format: ADME, organism-based; conditions: in vivo, 1 h
Mus musculus [16] = experiment: Biodistribution in BALB/c mouse upper body at 7 to 8 KBq, iv after 120 mins; format: ADME, organism-based; conditions: in vivo, 2 h
Lung [17] = experiment: Biodistribution in BALB/c mouse lung at 7 to 8 KBq, iv after 60 mins; format: ADME, organism-based; conditions: in vivo, 1 h
Cerebellum [18] = experiment: Biodistribution in BALB/c mouse cerebellum at 7 to 8 KBq, iv after 120 mins; format: ADME, organism-based; conditions: in vivo, 2 h
Striatum [19] = experiment: Biodistribution in BALB/c mouse striatum at 7 to 8 KBq, iv after 120 mins; format: ADME, organism-based; conditions: in vivo, 2 h
Brain = experiment: Biodistribution in BALB/c mouse brain at 7 to 8 KBq, iv after 5 mins; format: ADME, organism-based; conditions: in vivo
Thalamus = experiment: Biodistribution in BALB/c mouse thalamus at 7 to 8 KBq, iv after 15 mins; format: ADME, organism-based; conditions: in vivo, 0.25 h
Thyroid gland [20] = experiment: Biodistribution in BALB/c mouse thyroid at 7 to 8 KBq, iv after 60 mins; format: ADME, organism-based; conditions: in vivo, 1 h
Spleen = experiment: Biodistribution in BALB/c mouse spleen at 7 to 8 KBq, iv after 120 mins; format: ADME, organism-based; conditions: in vivo, 2 h
Mus musculus [21] = experiment: Biodistribution in BALB/c mouse lower body at 7 to 8 KBq, iv after 120 mins; format: ADME, organism-based; conditions: in vivo, 2 h
Heart [22] = experiment: Biodistribution in BALB/c mouse heart at 7 to 8 KBq, iv after 60 mins; format: ADME, organism-based; conditions: in vivo, 1 h
Blood [23] = experiment: Biodistribution in BALB/c mouse blood at 7 to 8 KBq, iv after 5 mins; format: ADME, organism-based; conditions: in vivo
Medulla [24] = experiment: Biodistribution in BALB/c mouse medulla at 7 to 8 KBq, iv after 5 mins; format: ADME, organism-based, Medulla of organ; conditions: in vivo
Cortex = experiment: Biodistribution in BALB/c mouse cortex at 7 to 8 KBq, iv after 60 mins; format: ADME, organism-based; conditions: in vivo, 1 h
Striatum [25] = experiment: Biodistribution in BALB/c mouse striatum at 7 to 8 KBq, iv after 5 mins; format: ADME, organism-based; conditions: in vivo
Lung [26] = experiment: Biodistribution in BALB/c mouse lung at 7 to 8 KBq, iv after 5 mins; format: ADME, organism-based; conditions: in vivo
Thyroid gland [27] = experiment: Biodistribution in BALB/c mouse thyroid at 7 to 8 KBq, iv after 5 mins; format: ADME, organism-based; conditions: in vivo
Pancreas [28] = experiment: Biodistribution in BALB/c mouse pancreas at 7 to 8 KBq, iv after 120 mins; format: ADME, organism-based; conditions: in vivo, 2 h
Hippocampus [29] = experiment: Biodistribution in BALB/c mouse hippocampus at 7 to 8 KBq, iv after 120 mins; format: ADME, organism-based; conditions: in vivo, 2 h
Hippocampus [30] = experiment: Biodistribution in BALB/c mouse hippocampus at 7 to 8 KBq, iv after 15 mins; format: ADME, organism-based; conditions: in vivo, 0.25 h
Lung [31] = experiment: Biodistribution in BALB/c mouse lung at 7 to 8 KBq, iv after 15 mins; format: ADME, organism-based; conditions: in vivo, 0.25 h
Liver [32] = experiment: Biodistribution in BALB/c mouse liver at 7 to 8 KBq, iv after 60 mins; format: ADME, organism-based; conditions: in vivo, 1 h
Pancreas [33] = experiment: Biodistribution in BALB/c mouse pancreas at 7 to 8 KBq, iv after 15 mins; format: ADME, organism-based; conditions: in vivo, 0.25 h
Liver [34] = experiment: Biodistribution in BALB/c mouse liver at 7 to 8 KBq, iv after 5 mins; format: ADME, organism-based; conditions: in vivo

Drug uptake (Heart [1]): 0.28 %ID | Drug uptake (Mus musculus [2]): 23.3 %ID | Drug uptake (Liver [3]): 10.38 %ID | Drug uptake (Medulla [4]): 5.23 %ID | Drug uptake (Stomach [5]): 4.61 %ID | Drug uptake (Heart [6]): 0.6 %ID | Drug uptake (Intestine [7]): 34.13 %ID | Drug uptake (Kidney [8]): 1.19 %ID | Drug uptake (Blood [9]): 3.49 %ID | Drug uptake (Kidney [10]): 5.42 %ID | Drug uptake (Intestine [11]): 9.16 %ID | Drug uptake (Cerebellum [12]): 4.71 %ID | Drug uptake (Medulla [13]): 1.2 %ID | Drug uptake (Kidney [14]): 4.41 %ID | Drug uptake (Stomach [15]): 7.35 %ID | Drug uptake (Mus musculus [16]): 5.72 %ID | Drug uptake (Lung [17]): 0.5 %ID | Drug uptake (Cerebellum [18]): 0.12 %ID | Drug uptake (Striatum [19]): 0.2 %ID | Drug uptake (Brain): 3.49 %ID | Drug uptake (Thalamus): 6.15 %ID | Drug uptake (Thyroid gland [20]): 0.68 %ID | Drug uptake (Spleen): 0.04 %ID | Drug uptake (Mus musculus [21]): 4.97 %ID | Drug uptake (Heart [22]): 0.13 %ID | Drug uptake (Blood [23]): 4.17 %ID | Drug uptake (Medulla [24]): 6.78 %ID | Drug uptake (Cortex): 2.05 %ID | Drug uptake (Striatum [25]): 7.28 %ID | Drug uptake (Lung [26]): 4.01 %ID | Drug uptake (Thyroid gland [27]): 0 %ID | Drug uptake (Pancreas [28]): 0.16 %ID | Drug uptake (Hippocampus [29]): 0.27 %ID | Drug uptake (Hippocampus [30]): 6.64 %ID | Drug uptake (Lung [31]): 1.6 %ID | Drug uptake (Liver [32]): 12.03 %ID | Drug uptake (Pancreas [33]): 1.02 %ID | Drug uptake (Liver [34]): 11.12 %ID
Structure (SMILES): CN1CCN(C2=Nc3cc([125I])ccc3Nc3ccccc32)CC1 [[125I]I-OZAPINE]

Source: ChEMBL document CHEMBL1139986, “Synthesis and biodistribution of 8-iodo-11-(4-methylpiperazino)-5H-dibenzo[b,e][1,4]-diazepine: Iozapine” (Bioorg Med Chem Lett, 2007)
